“Also recorded” adds a separate entry of the source.
Experiments:
HSV1-TK over m-TK = test: Kinase assay with HEK-293FT cell extracts (293^HSV1-tk vs 293^wt); type: biochemical; conditions: 5 μM substrate, 2 μL cell extract; specificity HSV1-TK over m-TK
Description: In a solid white 96-well plate, 5 μM substrate (dT, compounds 1, 2, or 3; N=4 for each substrate) and 20 μM ATP were dissolved in 48 μL of kinase reaction buffer (40 mM Tris; pH=7.5, 20 mM MgCl2, and 0.1 mg/mL BSA) followed by the addition of 2 μL of purified HSV1-TK to initiate the kinase reaction. Eight wells without substrate were included as the control reference. The plate was incubated at room temperature for 2 h, after which 50 μL of Kinase-Glo luciferase reagent (Kinase-Glo max luminescent kinase assay, Promega Inc.) was added. After […], the resulting luminescence values were recorded and used to quantify the residual ATP in the reaction. The relative phosphorylation (%) was then defined as the luminescence signal obtained after the enzymatic reaction (substrate+HSV1-TK+ATP) relative to the signal obtained from wells without substrate (HSV1-TK+ATP). For a phosphorylation assay performed on HEK-293FT lysates, 2 μL of cell extract (either ^293HSV1-tk or 293^wt cells) was used instead of purified HSV1-TK, and the assay was performed using 1 or 2 as the substrate according to the procedure described above.

9L^HSV1-tk cells = test: In vitro detection of accumulation with MR spectroscopy; type: cell-based, rat; conditions: 9L^HSV1-tk cells incubated 3.5 h
Description: At least two distinctive peaks, typical to 2, appear in the spectra of the pure compound (black), a singlet at 1.22 ppm (6H of the 2 Methyls) and a triplet at 6.29 ppm (1H, the proton on 1′ carbon of the sugar). Both peaks appear in the lysate of cells incubated with the compound (red spectra) but not in the control (blue spectra). The samples were prepared using dual-phase extraction for simultaneous extraction of cellular lipids and water-soluble metabolite. Twenty five million cells (9L^HSV1-tk) were incubated with or without 2 for 3.5 h. After dual-phase extraction and lyophilizing of the water from the water-soluble fraction, the soluble intracellular contents were dissolved in D2O for the ^1H-NMR experiments. Fully relaxed ^1H-NMR spectra of the extracts were acquired on a Bruker 500 MHz scanner. The signal integrals of the typical functional groups of 2 (methyl groups —(CH3)2 at 1.22 ppm and of the CH on the C-1′ position of the sugar moiety at 6.29 ppm) and of the standard TSP (0 ppm) were determined. Then, the mM intracellular concentration of 2 was calculated as shown previously (Glunde, K. et al., Cancer Res 2005, 65, 11034) and found to be 0.37 mM.

293^HSV1-tk cells = test: Cell viability assay (CellTiter-Blue); type: cell-based, human; conditions: 0.5 mg/ml, 4 and 24 hours
Description: Cell viability assay was performed using CellTiter-Blue® Cell Viability Assay (Promega), which provides a fluorometric method for estimating the number of viable cells present in 96 well plate. HEK293FT cells transduced with the HSV1-tk (293^HSV1-tk) were plated in 96 well-plate (10,000 cells/well). Cells were incubated for a periods of 4 hours and 24 hours in the presence of ganciclovir (GCV, 0.5 mg/ml in cell medium), compound 2 (0.5 mg/ml in cell medium) and medium (as control). CellTiter-Blue® Reagent was added (20 μl/well) and plate was incubated for 3 hours at 37° C. Finally, fluorescence 560/590 nm was recorded and values obtained from probe containing wells (GCV or 2, N=4) were normalized to values of non-treated cells (control wells) to determine the % of viable cells after the incubation period.

HSV1-TK [1] = type: in vivo, mice; conditions: 3 h after iv injection, 150 mg/kg, 5 ppm, n=8
Description: (§1) At the last time point of the experiment the full CEST-spectrum was acquired for each animal with the same parameters described in the Experimental Section (main text) except the followings: CEST-weighted images were acquired with a modified RARE pulse sequence (TR/TE=6000/35 ms), using a 213 Hz/4000 ms saturation pulse from −6 to +6 ppm around the water resonance, which was assigned to be at 0 ppm. Pixel-based B0 correction was used as described before (Kim, M. et al. Magn Reson Med 2009, 61, 1441) using the same parameters as above except for TR=1500 ms, B1/tsat=21 Hz/500 ms, with a sweep range from −1 to +1 ppm (0.1 ppm steps). Mean CEST spectra were plotted from an ROI for each tumor and normal brain tissue, after B0 correction. MTRasym=100×(S^−Δω−S^Δω)/S0 was computed at different offsets Δω.
(§2) pcDNA3.1-HSV1-tk was used to transfect 9L rat glioma cells. A single clone was selected with 0.5 mg/mL G418 antibiotics. 9L^HSV1-tk and nontransfected wild type 9L cells (9L^wt) were inoculated (2×10^5 cells/2 μL saline) bilaterally into the striatum of adult NOD-SCID male mice to generate intracranial 9L tumors in both hemispheres.
(§3) Data were acquired using a horizontal 11.7 T MRI scanner (Bruker, Biospec) equipped with a circular polarized MRI transceiver coil (i.d.=23 mm) Seven days after cell transplantation, mice were anesthetized with 1.5% isoflurane, and a series of […] CEST data sets were obtained at 1, 2, and 3 h following intravenous (iv) injection of 2 in saline (150 mg/kg body). CEST weighted images were acquired with a modified RARE pulse sequence (TR/TE=6000/35 ms), using a 213 Hz/4000 ms saturation pulse alternating between ±5 ppm frequency offsets from the water frequency. For each time point, the MTRasym map was calculated from four pairs of s−5 ppm/s+5 ppm using MATLAB (Mathworks). A single 1 mm slice with FOV of 1.6×1.6 cm^2 and a 128×48 matrix was used.

HSV1-TK [2] = target: T1, HSV1-TK (Human herpesvirus 1, UniProt P0DTH5); type: in vivo, mice
T1 construct: V5; expressed in transfected cells; host or cells: 9L rat glioma cells transfected with pcDNA3.1-HSV1-tk, single G418-selected clone, implanted in NOD-SCID mouse brain
Description: as §1, §2, §3

[3] = Quantification of exchange rates (QUESP, Bloch equation fitting); type: physicochemical; conditions: 11.7 T, pH 7.4, 37° C.
Description: Exchange rates were quantified with the saturation power dependent CEST approach (QUESP) and Bloch equation fitting (McMahon et al., Magn. Res. Med. 2006, 55, 836). For each sample, the MTRasym was measured at the imino resonance frequency for CEST saturation fields of 43, 85, 128, 170, 213, 255, 340, and 426 Hz while the saturation pulse duration was kept constant at 4000 ms. The Bloch equations were then fit numerically to these MTRasym values using MATLAB (Mathworks), and the exchange rates (kex, s^−1) were determined from the fits. Errors (95% confidence limits) were estimated using the F statistic.

T1 sequence (P0DTH5 whole entry): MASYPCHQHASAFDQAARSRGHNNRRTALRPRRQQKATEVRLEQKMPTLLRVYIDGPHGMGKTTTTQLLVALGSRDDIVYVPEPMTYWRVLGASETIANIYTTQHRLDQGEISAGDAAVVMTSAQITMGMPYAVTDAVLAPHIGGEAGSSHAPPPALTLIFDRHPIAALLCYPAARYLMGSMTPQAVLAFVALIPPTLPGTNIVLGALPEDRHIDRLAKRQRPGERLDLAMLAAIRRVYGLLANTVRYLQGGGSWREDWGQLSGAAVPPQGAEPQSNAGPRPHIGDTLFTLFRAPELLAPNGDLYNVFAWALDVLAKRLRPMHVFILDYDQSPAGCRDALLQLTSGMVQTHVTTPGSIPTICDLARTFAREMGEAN

Structure (SMILES): CC1(C)CN([C@H]2C[C@H](O)[C@@H](CO)O2)C(=O)NC1=O [Compound 2, 5-Methyl-5,6-dihydrothymidine]
- increase in phosphorylation with respect to control extract (293^wt), factor relative to that of 1 (HSV1-TK over m-TK): about 10
- intracellular concentration by 1H-NMR (9L^HSV1-tk cells): 0.37 mM
- toxic effect on 293^HSV1-tk cells (293^HSV1-tk cells): did not show any toxic effect; also recorded: no toxic effect
- normalized mean MTRasym values (ΔMTRasym), 9L^wt tumor (HSV1-TK [1]): 2.0±1.7
- average difference in ΔMTRasym between the two tumor types (full CEST spectrum) (HSV1-TK [2]; 5.0 ppm, last time point, N=8): approximately 0.77%
- normalized mean MTRasym values (ΔMTRasym), 9L^HSV1-tk tumor (HSV1-TK [2]; 3 h after iv injection, 150 mg/kg, 5 ppm, n=8): 4.5±1.5
- estimated intracellular concentration in 9L^HSV1-tk tumors (HSV1-TK [2]; from calibration curve, in vivo): approximately 0.7 mM
- kex of the imino proton [3]: 1.7±0.3×10^3 s^−1
- kex, quantified exchange rates of imino and water protons ([3]; 5 ppm for 1-3, 6 ppm for dT): 1.7 ± 0.3 ×10^3 s^−1
